Test [1] has as its target T1, TNKS2 (Homo sapiens, UniProt Q9H2K2).
T1 construct: purchased BPS Bioscience, San Diego, USA 80572 (TNKS2 Histone Ribosylation Assay Kit)
T1 sequence (Q9H2K2 1-1166): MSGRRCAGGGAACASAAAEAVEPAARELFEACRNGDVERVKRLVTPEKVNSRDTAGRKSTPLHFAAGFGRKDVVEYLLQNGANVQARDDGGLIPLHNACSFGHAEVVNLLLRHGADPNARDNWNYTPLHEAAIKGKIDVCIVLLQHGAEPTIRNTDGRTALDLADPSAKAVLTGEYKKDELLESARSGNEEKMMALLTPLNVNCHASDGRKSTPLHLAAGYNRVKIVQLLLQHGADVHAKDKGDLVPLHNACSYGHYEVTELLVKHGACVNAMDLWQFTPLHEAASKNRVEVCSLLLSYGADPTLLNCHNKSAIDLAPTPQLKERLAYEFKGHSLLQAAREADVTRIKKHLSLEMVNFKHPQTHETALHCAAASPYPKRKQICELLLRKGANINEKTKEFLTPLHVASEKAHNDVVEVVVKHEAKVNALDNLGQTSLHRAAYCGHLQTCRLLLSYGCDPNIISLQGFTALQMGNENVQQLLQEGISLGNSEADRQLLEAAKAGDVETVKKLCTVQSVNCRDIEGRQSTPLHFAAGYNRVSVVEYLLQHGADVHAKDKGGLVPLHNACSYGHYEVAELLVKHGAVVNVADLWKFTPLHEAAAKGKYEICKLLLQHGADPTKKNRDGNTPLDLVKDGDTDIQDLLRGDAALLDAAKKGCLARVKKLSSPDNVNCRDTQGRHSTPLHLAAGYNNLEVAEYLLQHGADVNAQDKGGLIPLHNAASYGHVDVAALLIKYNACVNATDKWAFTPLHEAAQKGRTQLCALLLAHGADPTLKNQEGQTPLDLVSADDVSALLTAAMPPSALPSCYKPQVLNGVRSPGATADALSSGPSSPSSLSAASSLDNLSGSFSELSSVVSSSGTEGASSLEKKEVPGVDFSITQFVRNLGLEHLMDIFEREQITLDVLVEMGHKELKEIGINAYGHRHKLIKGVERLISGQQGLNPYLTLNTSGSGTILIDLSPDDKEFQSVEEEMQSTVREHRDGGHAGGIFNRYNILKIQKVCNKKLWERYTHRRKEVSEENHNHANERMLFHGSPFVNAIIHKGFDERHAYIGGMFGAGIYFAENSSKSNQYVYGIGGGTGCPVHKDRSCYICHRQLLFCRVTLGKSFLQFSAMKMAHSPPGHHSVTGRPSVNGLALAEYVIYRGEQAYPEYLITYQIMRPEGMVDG
Kind of test: TNKS2 Assay B (auto-parsylation, [3H]-NAD+ SPA). To be noted: 6 nM TNKS2, auto-parsylation, over night at room temperature. Type of test: biochemical.

Test [2] has as its system HEK293 cells cotransfected with the FOP control vector. Nature of the test: HEK293 FOP assay (control reporter with non-functional TCF elements). Type of test: cell-based. The settings on record: Homo sapiens, 16 hours. In short, it runs like this:
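Stable HEK293 line carrying FOP control reporter (randomized non-functional TCF sites, with pcDNA3), Geneticin-selected, plated 24 h before assay. Stimulated with recombinant human Wnt-3a (2500-5 ng/ml) and compounds 50 μM–15 nM (3.16-fold steps) in CAFTY buffer pH 7.4 with 2 mM Ca2+, 0.01% BSA, run parallel to TOP line.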

Test [3] concerns wildtype Wnt signaling cascade. Nature of the test: HEK293 TOP assay (Super TopFlash luciferase reporter, Wnt-3a stimulated). Type of test: cell-based. To be noted: Homo sapiens, HEK293, 16 h, HEK293 TOP reporter cells, Wnt3a at EC50, 16 hours. In short, it runs like this: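 HEK293 cells stably carrying Super TopFlash (TOP) run in parallel with FOP cells, 10000/well plated 24 h ahead, stimulated with recombinant human Wnt-3a. Compounds tested 50 μM to 15 nM in 3.16-fold steps in CAFTY buffer pH 7.4 with 2 mM Ca^2+ and 0.01% BSA; luciferase read-out.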

Molecules are shown by their SMILES.

With `Cc1cc(N2CC[C@]3(CC[C@@H](NC(=O)c4[nH]cnc4C(=O)NC4CC4)CC3)C2=O)c(Cl)cc1F` [Example 295, N^5-[(trans)-2-(2-chloro-4-fluoro-5-methylphenyl)-1-oxo-2-azaspiro[4.5]dec-8-yl]-N^4-cyclopropyl-1H-imidazole-4,5-dicarboxamide], the concentration for half-maximal inhibition (IC50) amounted to 9.2 nM in test [1], 12000 nM in test [2] and 1 nM in test [3].
In the case of `O=C(N[C@H]1CC[C@]2(CCN(c3ccc(F)cc3Cl)C2=O)CC1)c1[nH]cnc1C(=O)N1CC(F)C1` [Example 340, N-[(cis)-2-(2-chloro-4-fluorophenyl)-1-oxo-2-azaspiro[4.5]dec-8-yl]-4-[(3-fluoroazetidin-1-yl)carbonyl]-1H-imidazole-5-carboxamide], the IC50 is 850 nM in test [1], 25000 nM in test [2] and 77 nM in test [3].
For `O=C(NC1CC1)c1nc[nH]c1C(=O)N[C@H]1CC[C@@]2(CCCN(c3ccc(F)cc3Cl)C2=O)CC1` [Example 328, N^5-[(trans)-2-(2-chloro-4-fluorophenyl)-1-oxo-2-azaspiro[5.5]undec-9-yl]-N^4-cyclopropyl-1H-imidazole-4,5-dicarboxamide], in that order: 75 nM, 27000 nM and 50 nM.
On to `O=C(N[C@H]1CC[C@@]2(CCN(c3cnccc3Cl)C2=O)CC1)c1cnn2cccnc12` [Example 246, N-[(trans)-2-(4-chloropyridin-3-yl)-1-oxo-2-azaspiro[4.5]dec-8-yl]pyrazolo[1,5-a]pyrimidine-3-carboxamide], for which the IC50 in test [1] is 5.9 nM; in test [2] it was at least 50000 nM; in test [3], 0.15 nM.
For `CNC(=O)c1nc[nH]c1C(=O)N[C@H]1CC[C@@]2(CCCN(c3cc(F)c(F)cc3Cl)C2=O)CC1` [Example 317, N^5-[(trans)-2-(2-chloro-4,5-difluorophenyl)-1-oxo-2-azaspiro[5.5]undec-9-yl]-N^4-methyl-1H-imidazole-4,5-dicarboxamide], in that order: 8.7 nM, at least 500 nM and 1.4 nM.
For `CN1CCN(C(=O)c2nc[nH]c2C(=O)N[C@H]2CC[C@@]3(CCN(c4cccc(Cl)c4)C3=O)CC2)CC1` [Example 283, N-[(trans)-2-(3-chlorophenyl)-1-oxo-2-azaspiro[4.5]dec-8-yl]-4-[(4-methylpiperazin-1-yl)carbonyl]-1H-imidazole-5-carboxamide], in that order: 4300 nM, 20000 nM and 440 nM.
As to `Cc1ccn2ncc(C(=O)N[C@H]3CC[C@]4(CCN(c5ccc(F)cc5Cl)C4=O)CC3)c2n1` [Example 335, N-[(cis)-2-(2-chloro-4-fluorophenyl)-1-oxo-2-azaspiro[4.5]dec-8-yl]-5-methylpyrazolo[1,5-a]pyrimidine-3-carboxamide], the IC50 in test [1] is over 10000 nM; in test [2], at least 50000 nM; in test [3] it was 650 nM.
For `NC(=O)c1nc[nH]c1C(=O)N[C@H]1CC[C@@]2(CCN(c3ccccc3Cl)C2=O)CC1` [Example 261, N^5-[(trans)-2-(2-chlorophenyl)-1-oxo-2-azaspiro[4.5]dec-8-yl]-1H-imidazole-4,5-dicarboxamide], in that order: 17 nM, at least 50000 nM and 4.6 nM.
In the case of `O=C(N[C@H]1CC[C@H](C(=O)Nc2ccc(F)cc2Cl)CC1)c1n[nH]c2ccc(F)cc12` [Example 254, N-{trans-4-[(2-chloro-4-fluorophenyl)carbamoyl]cyclohexyl}-5-fluoro-1H-indazole-3-carboxamide], the IC50 was over 10000 nM in test [1], at least 50000 nM in test [2] and 10000 nM in test [3].
Regarding `O=C(N[C@H]1CC[C@@]2(CCN(c3ccc(F)cc3Cl)C2=O)CC1)c1cnn2ccccc12` [Example 230, N-[(trans)-2-(2-chloro-4-fluorophenyl)-1-oxo-2-azaspiro[4.5]dec-8-yl]pyrazolo[1,5-a]pyridine-3-carboxamide], the half-maximal inhibitory concentration (IC50) in test [1] was 280 nM; in test [2] it was at least 500 nM; in test [3] it was 30 nM.
In the same order, the values of `O=C(N[C@H]1CC[C@@]2(CCN(c3ccc(OC(F)(F)F)cc3Cl)C2=O)CC1)c1cnn2cccnc12` [Example 354, N-{(trans)-2-[2-chloro-4-(trifluoromethoxy)phenyl]-1-oxo-2-azaspiro[4.5]dec-8-yl}pyrazolo[1,5-a]pyrimidine-3-carboxamide] are 26 nM, 19000 nM and 15 nM.
In the same order, the values of `O=C(NC1CC1)c1nc[nH]c1C(=O)N[C@H]1CC[C@@]2(CCCN(c3cc(F)c(F)cc3Cl)C2=O)CC1` [Example 324, N^5-[(trans)-2-(2-chloro-4,5-difluorophenyl)-1-oxo-2-azaspiro[5.5]undec-9-yl]-N^4-cyclopropyl-1H-imidazole-4,5-dicarboxamide] are 19 nM, at least 500 nM and 3 nM.
In the same order, the values of `Cc1cc(N2CCC[C@]3(CC[C@@H](NC(=O)c4[nH]cnc4C(=O)N4CC(F)C4)CC3)C2=O)c(Cl)cc1F` [Example 303, N-[(trans)-2-(2-chloro-4-fluoro-5-methylphenyl)-1-oxo-2-azaspiro[5.5]undec-9-yl]-4-[(3-fluoroazetidin-1-yl)carbonyl]-1H-imidazole-5-carboxamide] are 32 nM, at least 500 nM and 14 nM.
On to `O=C(N[C@H]1CC[C@@]2(CCN(c3ccc(F)cc3Cl)C2=O)CC1)c1cnc2c(NCCC(F)(F)F)cc(Cl)nn12` [Example 349, 6-chloro-N-[(trans)-2-(2-chloro-4-fluorophenyl)-1-oxo-2-azaspiro[4.5]dec-8-yl]-8-[(3,3,3-trifluoropropyl)amino]imidazo[1,2-b]pyridazine-3-carboxamide], for which the IC50 in test [1] is 43 nM; in test [2] it was at least 50000 nM; in test [3], 14 nM.
For `O=C(N[C@H]1CC[C@@]2(CCN(c3ccc(F)cc3Cl)C2=O)CC1)c1n[nH]c2cccnc12` [Example 228, N-[(trans)-2-(2-chloro-4-fluorophenyl)-1-oxo-2-azaspiro[4.5]dec-8-yl]-1H-pyrazolo[4,3-b]pyridine-3-carboxamide], in that order: 420 nM, at least 500 nM and 60 nM.
Take `CCNC(=O)c1nc[nH]c1C(=O)N[C@H]1CC[C@]2(CCN(c3ccc(F)cc3Cl)C2=O)CC1` [Example 339, N^5-[(cis)-2-(2-chloro-4-fluorophenyl)-1-oxo-2-azaspiro[4.5]dec-8-yl]-N^4-ethyl-1H-imidazole-4,5-dicarboxamide]: the results for the 50% inhibitory concentration (IC50) in test [1], in test [2] and in test [3] were over 10000 nM, at least 50000 nM and 3100 nM, respectively.
In the same order, the values of `O=C(N[C@H]1CC[C@@]2(CCN(c3ccc(F)cc3Cl)C2=O)CC1)c1cnn2c(O)ccnc12` [Example 235, N-[(trans)-2-(2-chloro-4-fluorophenyl)-1-oxo-2-azaspiro[4.5]dec-8-yl]-7-hydroxypyrazolo[1,5-a]pyrimidine-3-carboxamide] are 29 nM, at least 500 nM and 230 nM.
As for `COCc1cc(C)nc2c(C(=O)N[C@H]3CC[C@@]4(CCN(c5ccc(F)cc5Cl)C4=O)CC3)cnn12` [Example 219, N-[(trans)-2-(2-chloro-4-fluorophenyl)-1-oxo-2-azaspiro[4.5]dec-8-yl]-7-(methoxymethyl)-5-methylpyrazolo[1,5-a]pyrimidine-3-carboxamide], the IC50 in test [1] is 7.5 nM; in test [2] it was at least 500 nM; in test [3], 5.6 nM.
